We go through one substance from publication PMC6340402 (Chemical Science, 2018).

In this data set the test system is HeLa cells. As to the kind of experiment: Cellular uptake in HeLa cells by confocal laser scanning microscopy. Type of data set: cell-based. Particulars: 30 minutes, 37 °C, serum-containing medium, Fig. 3.

As for “FITC-Ahx-Arg-Arg-Arg-Arg-tetrazine-BCN-Arg-Arg-Arg-Arg-NH2 [R4-b-R4]”, the “cellular uptake (CLSM, FITC fluorescence)” value (all concentrations (5, 10, 15 and 20 μM)) is “taken up at all concentrations”. Besides, the “mechanism of uptake at the higher concentrations (CLSM)” value (higher concentrations) is “strong cytosolic uptake”.
